Source: US20030106085A1, “Disruption of the prostaglandin E synthase 2 gene” (Pfizer Inc., priority 2001, published 2003)

Tests used:
[1] = test system: PGES2 KO and wild type mice; assay: Acetic acid-induced writhing (acute inflammation/pain model); assay type: in vivo; details: 10 mg/kg orally, one hour before 0.7% acetic acid i.p., vs vehicle
Method: PGES2 KO mice were profiled in two experimental models of inflammation, collagen-induced arthritis (chronic inflammation model) and acetic acid-induced writhing (acute inflammation/pain model). All experiments were performed with age/sex-matched animals propagated on a DBA1/lacJ genetic background. This genetic background is optimal for collagen-induced arthritis (CIA). The phenotype in CIA was further profiled by characterizing the immune responses of PGES2 KO and wild type animals by assessing antibody production and delayed-type hypersensitivity reactions. In summary, results of the CIA and acetic acid-induced writhing models indicate a role for PGES2 in PGE2-mediated chronic inflammation, acute inflammation, and acute inflammatory pain detection as opposed to neuropathic pain detection. Mice were randomized and dosed orally with either vehicle (0.5% (w/w) methylcellulose, Sigma Chemical, #M0512) or 10 mg/kg piroxicam (Sigma Chemical, #P5654). One hour later, 16 μl/g body weight of 0.7% acetic acid was administered intraperitoneally. The mice were placed in a 5-compartment box and the number of stretches was counted for 20 minutes following acetic acid injection.

[2] = test system: PGES2 KO clone #22F ES cell-derived macrophages; assay: Rescue of wild type phenotype (cell density) in PGES2 KO ES cell-derived macrophages by PGE2 added to the media; assay type: cell-based, murine
Method: DBA-252 WT (+/+) and PGES KO (−/−) ES cell clones #22D, #22F and #70V were used to develop ES cell in vitro differentiated (IVD) macrophages. WT and KO PGES2 ES cell clones were maintained without PEF feeders in SCML. Two days prior to embryoid body (EB) formation, all ES cell lines were switched to l-SCML medium that contained a base medium of Iscove's MDM (ILTI, #31980-030) supplemented with 15% ES cell qualified fetal calf serum, 0.2 mM L-glutamine, 0.1 mM MEM non-essential amino acids, 1000 u/ml recombinant murine leukemia inhibitory factor, 50 μg/ml Gentamycin and 0.1 mM 2-Mercaptoethanol (Sigma #M-7522).
Embryoid body stage: The WT and KO ES cell clones were dissociated and grown in suspension culture in bacteriology 100 mm dishes in MacEB medium that contained the base medium Iscove's MDM supplemented with 15% ES cell qualified fetal calf serum, 2 mM L-glutamine, 300 μg transferrin (ILTI, #13008-016), 50 μg/ml L-ascorbic acid (Sigma Chemical, #A-4403), 5% PFHM-II (ILTI, #12040-093), 4×10^−4 M monothioglycerol (MTG), and 50 μg/ml Gentamycin. ES cells were grown in suspension for 6 days to form the EB cell aggregates.
Precursor macrophage stage: The EBs were dissociated on day 6 and plated in tissue culture dishes in Mac I medium that contained the base medium Iscove's MDM supplemented with 10% FBS (ILTI, #10439-024), 5% PFHM-II (ILTI, #12040-093), 2 mM L-glutamine, 3 ng/ml M-CSF (Sigma #M-9170), 1 ng/ml IL-3 (PeproTech, Inc., Rocky Hill, N.J., #213-13) and 50 μg/ml Gentamycin. When this cell population became confluent, the macrophage precursors developed as non-adherent clusters and could be harvested every other day from day 14 through day 30.
ES cell-derived macrophages: Non-adherent clusters of macrophage precursors were harvested from the media by centrifugation. Cell pellets were resuspended in Mac II media that contained the base medium Iscove's MDM supplemented with 10% FBS, 5% PFHM-II, 2 mM L-glutamine, 3 ng/ml M-CSF, and 50 μg/ml Gentamycin. […]

| SMILES | pain response (number of stretches counted for 20 minutes following acetic acid injection) ([1]; PGES2 KO mice) | pain response (number of stretches counted for 20 minutes following acetic acid injection) ([1]; wild type mice) | macrophage density ([2]; PGES2 KO clone 22F macrophages cultured in 10.0 μM PGE2, added at all stages of differentiation) | macrophage density compared to wild type ([2]; PGES2 KO clone #22F macrophages cultured in 0.1 μM PGE2, added at all stages of differentiation) | macrophage density compared to wild type ([2]; PGES2 KO clone #22F macrophages cultured in 1.0 μM PGE2, added at all stages of differentiation) |
| --- | --- | --- | --- | --- | --- |
| CN1C(C(=O)Nc2ccccn2)=C(O)c2ccccc2S1(=O)=O [piroxicam] | had no effect | reduced the response |  |  |  |
| CCCCC[C@H](O)/C=C/[C@H]1[C@H](O)CC(=O)[C@@H]1C/C=C\CCCC(=O)O [PGE2, Prostaglandin E2] |  |  | approximately 75 % of wild type | equivalent in density to wild type | equivalent in density to wild type |
